From patent US20250009902A1, “ARTIFICIAL ENZYME-BACTERIA SYSTEM AND USES THEREOF” (NATIONAL UNIVERSITY OF SINGAPORE, priority 2021, published 2025)

Tests used:
HT-29 cells [1] = assay: HT-29 cell viability, MTT assay, with or without H2O2; details: 200 μM H2O2, MTT; H2O2 alone approximately 20%; FIG. 4k
Procedure: (§1) For the protection of cells from H2O2 induced oxidative stress, different concentrations of BL@B-SA50 were cultured with HT-29 cells in the absence or presence of H2O2 (200 μM) for 24 hours. Relative cell viabilities were tested by the 3-(4,5-dimethylthiazol-2-yl)-2,5-diphenyltetrazolium bromide (MTT) assay.
(§2) The concentrations of nanomaterials in different measurements of MTT assays were 0.625 μg/mL while that for confocal microscopy and flow cytometry were both 2.5 μg/mL. The viabilities of HT-29 cells without treatment were defined as 100%, while the ROS content of HT-29 cells without treatment was defined as 1.

HT-29 cells [2] = system: HT-29 cells
Procedure: as §1, §2

**Q.** Which results are given for Bifidobacterium longum [BL]?
**A.** viability of HT29 cells exposed to H2O2 (HT-29 cells [1]): also enhanced; relative cell viability of HT29 cells (cytotoxicity / growth) (HT-29 cells [2]): could promote the growth of HT29
